Measurements reported in ChEMBL document CHEMBL5236596, “Discovery and Optimization of N-Acyl-6-sulfonamide-tetrahydroquinoline Derivatives as Novel Non-Steroidal Selective Glucocorticoid Receptor Modulators” (J Med Chem, 2022).

What was measured:
Glucocorticoid receptor [1] = target: T1, Glucocorticoid receptor (Homo sapiens, UniProt P04150); assay: Modulation of glucocorticoid receptor (unknown origin) transfected in human HeLa cells assessed as transrepression by measuring inhibition of PMA-induced AP-1 signalling incubated for 18 hrs by dual-luciferase reporter based assay; assay type: cell-based
T1 sequence (P04150 whole entry): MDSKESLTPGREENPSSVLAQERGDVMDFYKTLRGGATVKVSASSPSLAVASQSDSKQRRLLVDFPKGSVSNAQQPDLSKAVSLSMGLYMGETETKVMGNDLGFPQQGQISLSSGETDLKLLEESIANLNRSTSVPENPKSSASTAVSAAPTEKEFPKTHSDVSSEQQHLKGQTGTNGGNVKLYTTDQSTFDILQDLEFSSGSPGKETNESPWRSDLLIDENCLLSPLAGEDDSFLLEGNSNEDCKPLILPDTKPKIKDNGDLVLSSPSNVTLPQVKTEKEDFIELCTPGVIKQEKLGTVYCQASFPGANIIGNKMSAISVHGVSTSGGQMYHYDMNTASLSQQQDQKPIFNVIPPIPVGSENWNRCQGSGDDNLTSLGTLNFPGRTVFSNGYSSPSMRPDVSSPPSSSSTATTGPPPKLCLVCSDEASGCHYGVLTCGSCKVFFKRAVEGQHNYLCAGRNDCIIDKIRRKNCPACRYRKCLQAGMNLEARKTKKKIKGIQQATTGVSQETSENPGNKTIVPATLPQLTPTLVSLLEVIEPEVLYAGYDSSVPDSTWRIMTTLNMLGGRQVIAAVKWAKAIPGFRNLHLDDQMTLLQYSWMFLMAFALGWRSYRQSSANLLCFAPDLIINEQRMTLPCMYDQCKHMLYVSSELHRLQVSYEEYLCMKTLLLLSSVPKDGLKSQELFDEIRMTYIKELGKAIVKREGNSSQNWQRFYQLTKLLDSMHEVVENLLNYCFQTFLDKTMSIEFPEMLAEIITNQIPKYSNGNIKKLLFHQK

Glucocorticoid receptor [2] = target: T1, Glucocorticoid receptor; assay: Binding affinity to glucocorticoid receptor (unknown origin) by Lanthascreen TR-FRET competition binding assay
Glucocorticoid receptor [3] = target: T1, Glucocorticoid receptor; assay: Modulation of glucocorticoid receptor (unknown origin) transfected in human HeLa cells assessed as transrepression by measuring inhibition of TNF-alpha induced NF-kappaB signalling incubated for 18 hrs by dual-luciferase reporter based assay; assay type: cell-based

| SMILES | IC50 (Glucocorticoid receptor [1]) [nM] | IC50 (Glucocorticoid receptor [2]) [nM] | IC50 (Glucocorticoid receptor [3]) [nM] |
| --- | --- | --- | --- |
| COc1cc(C)c(Cl)cc1S(=O)(=O)Nc1ccc2c(c1)CCCN2C(=O)c1ccc(Cl)cc1 | 1810 | 2070 | 100 |
| C#CC1=C(SCC(=O)c2ccccc2)NC(C)=C(C(C)=O)C1c1cccs1 (stereo unspecified) |  | 1860 |  |
| COc1cccc(Cl)c1S(=O)(=O)Nc1ccc2c(c1)CCCN2C(=O)c1ccco1 | > 10000 |  | > 10000 |
| COc1cc(C)c(Cl)cc1S(=O)(=O)Nc1ccc2c(c1)CCCN2C(=O)c1ccc(C(F)(F)F)cc1 | 3330 | 2220 | 300 |
| COc1cc(C)c(C)cc1S(=O)(=O)Nc1ccc2c(c1)CCCN2C(=O)C1CC1 | 360 | 7500 | 100 |
| CCS(=O)(=O)N(c1ccc2c(c1)CCCN2C(=O)c1ccco1)S(=O)(=O)CC | > 50000 |  | > 50000 |
| COc1cc(C)c(Cl)cc1S(=O)(=O)Nc1ccc2c(c1)CCCN2C(=O)c1cccs1 | 1360 | 1140 | 170 |
| O=C(c1ccco1)N1CCCc2cc(NS(=O)(=O)c3ccc(Cl)c(C(F)(F)F)c3)ccc21 | 4120 | 19700 | 2450 |
| COc1ccccc1S(=O)(=O)Nc1ccc2c(c1)CCCN2C(=O)c1ccco1 | 4910 | > 10000 | 900 |
| COc1cc(C)c(Cl)cc1S(=O)(=O)Nc1ccc2c(c1)CCCN2C(=O)c1ccncc1 | 550 | > 50000 | 20 |
| COc1cc(C)c(Cl)cc1S(=O)(=O)Nc1ccc2c(c1)CCCN2C(=O)c1ccc(C)cc1F | > 10000 |  | > 10000 |
| COc1ccc(C)c(C)c1S(=O)(=O)Nc1ccc2c(c1)CCCN2C(=O)c1ccco1 | 990 | 1350 | 100 |
| O=C(c1ccco1)N1CCCc2cc(NS(=O)(=O)c3ccc(C(F)(F)F)cc3)ccc21 | 3220 | > 50000 | 2620 |
| N#Cc1ccc(S(=O)(=O)Nc2ccc3c(c2)CCCN3C(=O)c2ccco2)cc1 | > 10000 |  | > 10000 |
| COc1cc(C)c(C)cc1S(=O)(=O)Nc1ccc2c(c1)CCCN2C(=O)C1CCCCC1 | > 10000 | > 50000 | 4610 |
| COc1cc(C)c(Cl)cc1S(=O)(=O)Nc1ccc2c(c1)CCCN2C(=O)C1CCCCC1 | > 10000 | > 50000 | 580 |
| COc1cc(C)c(Cl)cc1S(=O)(=O)Nc1ccc2c(c1)N(C(=O)c1ccco1)CCC2 | 680 | > 50000 | 60 |
| O=C(c1ccco1)N1CCCc2cc(NS(=O)(=O)c3ccc4ccccc4c3)ccc21 | 2080 | 1120 | 190 |

| SMILES | IC50 (Glucocorticoid receptor [1]) [nM] | IC50 (Glucocorticoid receptor [2]) [nM] | IC50 (Glucocorticoid receptor [3]) [nM] |
| --- | --- | --- | --- |
| NC(=O)c1ccc(S(=O)(=O)Nc2ccc3c(c2)CCCN3C(=O)c2ccco2)cc1 | > 10000 |  | > 10000 |
| CN(C)c1cccc2c(S(=O)(=O)Nc3ccc4c(c3)CCCN4C(=O)c3ccco3)cccc12 | 1670 | > 50000 | 210 |
| COc1cc(C)c(Cl)cc1S(=O)(=O)Nc1ccc2c(c1)CCCN2C(=O)c1ccc2ccccc2c1 | 1950 | 3280 | 330 |
| O=C(c1ccco1)N1CCCc2cc(NS(=O)(=O)c3ccc(Cl)c([N+](=O)[O-])c3)ccc21 | 1000 | 590 | 260 |
| CCCCc1ccc(S(=O)(=O)Nc2ccc3c(c2)CCCN3C(=O)c2ccco2)cc1 | 3690 | 7160 | 1150 |
| COc1ccc(S(=O)(=O)Nc2ccc3c(c2)CCCN3C(=O)c2ccco2)cc1 | 5620 | > 50000 | 1830 |
| COc1cc(C)c(Cl)cc1S(=O)(=O)Nc1ccc2c(c1)CCCN2C(=O)c1ccco1 | > 10000 | 5020 | 50 |
| COc1cc(C)c(Cl)cc1S(=O)(=O)Nc1ccc2c(c1)CCCN2C(=O)c1ncccn1 | 1170 | > 50000 | 130 |
| O=C(c1ccco1)N1CCCc2cc(N(S(=O)(=O)Cc3ccccc3)S(=O)(=O)Cc3ccccc3)ccc21 | > 50000 |  | > 50000 |
| O=C(c1ccco1)N1CCCc2cc(NS(=O)(=O)c3ccc(-c4ccccc4)cc3)ccc21 | 7220 | 90 | 810 |
| COc1ccc(C(=O)N2CCCc3cc(NS(=O)(=O)c4cc(Cl)c(C)cc4OC)ccc32)cc1 | 1420 | > 50000 | 67 |
| CC(C)(C)c1ccc(S(=O)(=O)Nc2ccc3c(c2)CCCN3C(=O)c2ccco2)cc1 | 1150 | 470 | 180 |
| O=C(c1ccco1)N1CCCc2cc(NS(=O)(=O)c3ccccc3)ccc21 | 3830 | 1920 | 3990 |
| CCCCS(=O)(=O)N(c1ccc2c(c1)CCCN2C(=O)c1ccco1)S(=O)(=O)CCCC | 2840 | > 50000 | 1790 |
| O=C(c1ccco1)N1CCCc2cc(NS(=O)(=O)c3cccs3)ccc21 | 9260 | > 50000 | > 10000 |
| COc1cc(C)c(Cl)cc1S(=O)(=O)Nc1ccc2c(c1)CCCN2C(=O)c1ccc(C)cc1 | 1110 | > 50000 | 80 |
| COc1cc(C)c(C)cc1S(=O)(=O)Nc1ccc2c(c1)CCCN2C(=O)c1ccccc1 | 1140 | > 50000 | 890 |

Results, then the compound that gave them:

| IC50 (Glucocorticoid receptor [1]) [nM] | IC50 (Glucocorticoid receptor [2]) [nM] | IC50 (Glucocorticoid receptor [3]) [nM] | SMILES |
| --- | --- | --- | --- |
| 3960 | > 50000 | 450 | O=C(c1ccco1)N1CCCc2cc(N(S(=O)(=O)c3ccc(Cl)cc3)S(=O)(=O)c3ccc(Cl)cc3)ccc21 |
| > 25000 |  | > 10000 | O=C(c1ccco1)N1CCCc2cc(N(S(=O)(=O)c3ccc(Br)cc3)S(=O)(=O)c3ccc(Br)cc3)ccc21 |
| 4800 | > 50000 | 2660 | O=C(c1ccco1)N1CCCc2cc(N(S(=O)(=O)c3ccc([N+](=O)[O-])cc3)S(=O)(=O)c3ccc([N+](=O)[O-])cc3)ccc21 |
| 7990 | > 50000 | 700 | O=C(c1ccco1)N1CCCc2cc(N(S(=O)(=O)c3ccc4c(c3)CCCC4)S(=O)(=O)c3ccc4c(c3)CCCC4)ccc21 |
| 3150 | > 30000 | > 10000 | N#Cc1ccc(S(=O)(=O)N(c2ccc3c(c2)CCCN3C(=O)c2ccco2)S(=O)(=O)c2ccc(C#N)cc2)cc1 |
| > 10000 |  | > 50000 | COC(=O)c1ccc(S(=O)(=O)N(c2ccc3c(c2)CCCN3C(=O)c2ccco2)S(=O)(=O)c2ccc(C(=O)OC)cc2)cc1 |
| 4270 | > 50000 | 3620 | O=C(c1ccco1)N1CCCc2cc(NS(=O)(=O)c3ccc([N+](=O)[O-])cc3)ccc21 |
| > 10000 |  | > 10000 | CC(C)(C)c1ccc(S(=O)(=O)N(c2ccc3c(c2)CCCN3C(=O)c2ccco2)S(=O)(=O)c2ccc(C(C)(C)C)cc2)cc1 |
| 5040 | 1970 | 1320 | O=C(c1ccco1)N1CCCc2cc(NS(=O)(=O)c3ccc4c(c3)CCO4)ccc21 |
| > 10000 |  | > 10000 | O=C(c1ccco1)N1CCCc2cc(NS(=O)(=O)c3ccc(F)cc3)ccc21 |
| 2860 | > 50000 | 1050 | O=C(c1ccco1)N1CCCc2cc(N(S(=O)(=O)c3cccs3)S(=O)(=O)c3cccs3)ccc21 |
| 4070 | 1220 | 320 | O=C(c1ccco1)N1CCCc2cc(NS(=O)(=O)c3ccc4c(c3)CCCC4)ccc21 |
| 1050 | > 50000 | 280 | COc1ccc(S(=O)(=O)N(c2ccc3c(c2)CCCN3C(=O)c2ccco2)S(=O)(=O)c2ccc(OC)cc2)cc1 |
| 330 | > 50000 | 90 | Cc1ccc(S(=O)(=O)N(c2ccc3c(c2)CCCN3C(=O)c2ccco2)S(=O)(=O)c2ccc(C)cc2)cc1 |
| > 50000 |  | > 10000 | O=C(c1ccco1)N1CCCc2cc(N(S(=O)(=O)c3cccnc3)S(=O)(=O)c3cccnc3)ccc21 |
| > 50000 |  | > 50000 | O=C(c1ccco1)N1CCCc2cc(N(S(=O)(=O)c3ccc(C(F)(F)F)cc3)S(=O)(=O)c3ccc(C(F)(F)F)cc3)ccc21 |
| 620 | > 50000 | 390 | O=C(c1ccco1)N1CCCc2cc(N(S(=O)(=O)c3ccccc3)S(=O)(=O)c3ccccc3)ccc21 |
| 4150 | 2290 | 70 | O=C(c1ccco1)N1CCCc2cc(N(S(=O)(=O)c3ccc(-c4ccccc4)cc3)S(=O)(=O)c3ccc(-c4ccccc4)cc3)ccc21 |
| 2250 | > 50000 | 840 | O=C(c1ccco1)N1CCCc2cc(N(S(=O)(=O)c3ccc(F)cc3)S(=O)(=O)c3ccc(F)cc3)ccc21 |
| 3190 | > 50000 | 430 | O=C(c1ccco1)N1CCCc2cc(N(S(=O)(=O)c3cc4ccccc4s3)S(=O)(=O)c3cc4ccccc4s3)ccc21 |
